From patent US11304419B2, “Methods to induce heat stress tolerance in plants” (Valent BioSciences LLC, priority 2020, dated 2022)

Columns and labels:
Format in all cases: in vivo
[1] = tested on: Apogee wheat; assay: Heat stress tolerance in wheat following ACC application during flowering; conditions: heat stress 36/30° C. 7 days, n = 8
Method: 24 pots of Apogee wheat were grown in a greenhouse under 3 consecutive growing conditions. First, the wheat was planted in ProMix® growth media and grown for about 6 weeks in a growth cabinet at 24/18° C. day/night temperature under a 16/8 hour light/dark photoperiod. Plants were at Feekes stage 10.4-10.5 (flowering stage) following the first set of growth conditions. Next, spray applications of 0, 30 or 100 ppm ACC (n=8) were made using a tank sprayer. Next, 2 days following treatment, the plants were transferred to a growth chamber at 36/30° C. day/night temperature under a 16/8-hour light/dark photoperiod for 7 days. These conditions constitute significant heat stress. Finally, the plants were then returned to growth chamber at 24/18° C. day/night temperature under a 16/8-hour light/dark photoperiod for about 5 additional weeks. Plants were then destructively harvested and measured for total spike number, spike weight, grain weight, yield per spike, A spike number and harvest index. A spike number is calculated by subtracting the number of reproductive tillers at treatment from the number of reproductive tillers at harvest. An increase in reproductive tillers is indicative of an increase in reproductive success. Harvest index is calculated by dividing pounds of grain by the total pounds of above ground biomass.

[2] = tested on: Butterhead lettuce; assay: Heat stress tolerance in lettuce following ACC application at rosette stage; conditions: heat stress 34/30° C. nine days; for Canopy Density / Fresh Weight / Δ Canopy Density: n = 5; for Canopy Density, percent increase over stress control / Fresh Weight, percent increase over stress control / Δ Canopy Density, percent increase over stress control: vs stress control; for Canopy Density, percent increase over treatment control / Fresh Weight, percent increase over treatment control / Δ Canopy Density, percent increase over treatment control: vs treatment control
Method: Butterhead lettuce was seeded into ProMix BX (Premier Horticulture) and grown in a greenhouse. Three weeks post-sowing the lettuce was transferred to a growth cabinet under the following conditions: 24/18° C. day/night temperature under a 16/8 hour light/dark photoperiod. Plants were at head formation (rosette) stage following the first set of growth conditions. 4 days after transfer canopy density was calculated. Next, spray applications of 0, 10, 30 or 100 ppm ACC (n=5) were made using a track sprayer on Sep. 21, 2020. Next, two days following treatment, half of the plants were transferred to a second growth cabinet at 34/30° C. day/night temperature under a 16/8-hour light/dark photoperiod for nine days. These conditions constitute significant heat stress. Plants were then destructively harvested and measured for fresh weight, size, canopy density and A canopy density. A canopy density is calculated by subtracting the canopy density at treatment from the canopy density at harvest.

[3] = tested on: dwarf variety of Brassica napus; assay: Heat stress tolerance in Brassica napus following ACC application; conditions: heat stress 36/30° C. seven days; for Seed Number per Pod / Seed Yield per Pod / Single Seed Weight: n = 10; for Seed Number per Pod, percent increase over treatment control / Seed Yield per Pod, percent increase over treatment control / Single Seed Weight, percent increase over treatment control: vs treatment control
Method: A dwarf variety of Brassica napus commonly used as an experimental model for the canola variety of B. napus was seeded into ProMix BX (Premier Horticulture) and grown in a greenhouse. […] Following spraying, plants were moved to a growth cabinet under the following conditions: 24/18 C day night temperatures under a 16/8 light dark period. Next, 2 days following treatment, half of the plants were transferred to a second growth cabinet at 36/30° C. day/night temperature under a 16/8-hour light/dark photoperiod for seven days. These conditions constitute early season heat stress. At all times flowers and pods were pruned to keep the number of pods to about 10. Plants were then destructively harvested and measured for seed yield, seed numbers, seed yield per pod, seed number per pod and single seed weight.

[4] = 30 ppm ACC spray at Feekes stage 10.4-10.5
[5] = 100 ppm ACC spray at Feekes stage 10.4-10.5
[6] = 10 ppm ACC spray at rosette stage
[7] = 30 ppm ACC spray at rosette stage
[8] = 100 ppm ACC spray at rosette stage

## NC1(C(=O)O)CC1 [ACC, 1-amino-1-cyclopropanecarboxylic acid]
[1]; [4]
  Grain Weight: 3.1 grams
  Harvest Index: 0.32
  Spike Weight: 5.39 grams
  Total Spike Number: 6.25
  Yield per Spike: 0.5 grams
  Δ Spike Number: 1.75
[1]; [5]
  Grain Weight: 3.37 grams
  Harvest Index: 0.34
  Spike Weight: 5.69 grams
  Total Spike Number: 6.5
  Yield per Spike: 0.53 grams
  Δ Spike Number: 2.13
[2]; [6]
  Canopy Density: 15.58
  Fresh Weight: 93.94 grams
  Δ Canopy Density: 5.12
[2]; 10 ppm ACC
  Canopy Density, percent increase over stress control: (−11.5%)
  Fresh Weight, percent increase over stress control: (−8.5%)
  Δ Canopy Density, percent increase over stress control: (−24.9%)
  Canopy Density, percent increase over treatment control: [5.9%]
  Fresh Weight, percent increase over treatment control: [11.6%]
  Δ Canopy Density, percent increase over treatment control: [46.3%]
[2]; [7]
  Canopy Density: 16.65
  Fresh Weight: 115.11 grams
  Δ Canopy Density: 5.08
[2]; 30 ppm ACC
  Canopy Density, percent increase over stress control: (−5.4%)
  Fresh Weight, percent increase over stress control: (12.1%)
  Δ Canopy Density, percent increase over stress control: (−25.5%)
  Canopy Density, percent increase over treatment control: [13.2%]
  Fresh Weight, percent increase over treatment control: [36.8%]
  Δ Canopy Density, percent increase over treatment control: [45.1%]
[2]; [8]
  Canopy Density: 15.80
  Fresh Weight: 97.51 grams
  Δ Canopy Density: 4.11
[2]; 100 ppm ACC
  Canopy Density, percent increase over stress control: (−10.2%)
  Fresh Weight, percent increase over stress control: (−5.1%)
  Δ Canopy Density, percent increase over stress control: (−39.7%)
  Canopy Density, percent increase over treatment control: [7.4%]
  Fresh Weight, percent increase over treatment control: [15.9%]
  Δ Canopy Density, percent increase over treatment control: [17.4%]
[3]; 10 ppm ACC spray at flowering
  Seed Number per Pod: 14.8
  Seed Yield per Pod: 0.029 grams
  Single Seed Weight: 0.0019 grams
[3]; 10 ppm ACC
  Seed Number per Pod, percent increase over treatment control: [6.5%]
  Seed Yield per Pod, percent increase over treatment control: [0%]
  Single Seed Weight, percent increase over treatment control: [−9.5%]
[3]; 30 ppm ACC spray at flowering
  Seed Number per Pod: 15.1
  Seed Yield per Pod: 0.033 grams
  Single Seed Weight: 0.0021 grams
[3]; 30 ppm ACC
  Seed Number per Pod, percent increase over treatment control: [8.6%]
  Seed Yield per Pod, percent increase over treatment control: [13.8%]
  Single Seed Weight, percent increase over treatment control: [0%]
[3]; 100 ppm ACC spray at flowering
  Seed Number per Pod: 17.4
  Seed Yield per Pod: 0.036 grams
  Single Seed Weight: 0.0020 grams
[3]; 100 ppm ACC
  Seed Number per Pod, percent increase over treatment control: [25.2%]
  Seed Yield per Pod, percent increase over treatment control: [24.1%]
  Single Seed Weight, percent increase over treatment control: [−4.8%]
[3]; 300 ppm ACC spray at flowering
  Seed Number per Pod: 15.6
  Seed Yield per Pod: 0.030 grams
  Single Seed Weight: 0.0019 grams
[3]; 300 ppm ACC
  Seed Number per Pod, percent increase over treatment control: [12.2%]
  Seed Yield per Pod, percent increase over treatment control: [3.4%]
  Single Seed Weight, percent increase over treatment control: [−9.5%]
